In patent US12576155B2, “Senolytic and antiinflammatory prodrugs and methods of use thereof” (priority 2019, dated 2026):

Tests used:
[1] = test system: SARS-CoV-2-infected rhesus macaques; experiment: SARS-CoV-2-infected rhesus macaques, late-stage SSK1 treatment (i.v. once a day 22 to 28 dpi); type: in vivo
Protocol: To evaluate the therapeutic effect of SSK1 on the recovery period of SARS-CoV-2 infection, we used nine rhesus macaques of three different ages as reported before (Lu et al., 2020). All the animals were inoculated with total 4.75 ml of 10^6 pfu/ml SARS-CoV-2 intratracheally (4.00 ml), intranasally (0.50 ml) and on conjunctiva (0.25 ml). The nine rhesus macaques were divided into three groups according to the treatments, which included vehicle (DMSO), low dosage (0.5 mg/kg) and high dosage (2.0 mg/kg) of SSK1, respectively. Each group randomly selected one young, one adult and one old monkey. The final grouping is presented as following: the vehicle-treated group, RM1 (young), RM2 (adult) and RM3 (old); 0.5 mg/kg SSK1-treated group, RM4 (young), RM5 (adult) and RM6 (old); 2.0 mg/kg SSK1-treated group, RM7 (young), RM8 (adult) and RM9 (old). […] For each group, vehicle (DMSO), low dosage SSK1 (0.5 mg/kg) and high dosage SSK1 (2.0 mg/kg) were administrated intravenously (i.v.) once a day from 22 to 28 dpi. Animals were anesthetized and clinical exams were performed daily. We recorded the body weight, anal temperature on each examination day and collected blood samples for hematology analysis as well as swabs form nasal, throat and rectal for virus quantitative detection. The monkeys were euthanized on 34, 35 and 36 dpi. We collected the bronchoalveolar lavage fluid (BALF) with 10 ml PBS (Gibco, Cat #21-040-CVC) and recorded the pathological changes of all organs. Tissue samples collected from all organs and the BALF were further analyzed.
100 mg/ml SSK1 dissolved in DMSO (Life Science, Cat #1087C114) was mixed in 95% PBS (Gibco, Cat #21-040-CVC), 5% Tween-80 (BioFroxx, Cat #1716) and administrated intravenously (i.v.) at the dosage of 0.5 mg/kg or 2.0 mg/kg to monkeys at the indicated time point (the injection finished within 5-10 minutes). DMSO mixed in 95% PBS (Gibco, Cat #21-040-CVC), 5% Tween-80 (BioFroxx, Cat #1716) was intravenously (i.v.) injected as vehicle.
The blood samples were collected from saphenous vein of hind limb of anaesthetized monkeys using 5 ml blood collection tube containing sodium citrate anti-coagulant for further analysis. For Complete Blood Count (CBC), Auto Hematology Analyzer (BC-5000 Vet, Mindray, China) was used. The white blood cells-related numbers and percentages of Neutrophil (Neu), Lymphocyte (Lym), Monocyte (Mon), Eosinophil (Eos), Basophil (Bas), and platelet-related items, platelet count (PLT), mean platelet volume (MPV), platelet distribution width (PDW), plateletcrit (PCT) were analyzed. For serum biochemical analysis, the blood was clotted for 30 min at 4° C. and centrifugated at 3,000×rpm for 15 min to obtain serum. The serum was used to analysis the alanine transaminase (ALT), aspartate transaminase (AST), alkaline phosphatase (ALP), uric acid (UA) and creatinine (CRE-E) by Chemistry Analyzer (Mindray, BS-350E).
The serum and BALF samples were collected for analysis of cytokine and chemokine. Concentration of granulocyte colony-stimulating factor (G-CSF), granulocyte-macrophage colony-stimulating factor (GM-CSF), interferon (IFN)-γ, interleukin (IL)-1 receptor antagonist, IL-1β, IL-2, IL-4, IL-5, IL-6, IL-8, IL-10, IL-12/23 (p40), IL-13, IL-15, IL-17, IL-18, monocyte chemotactic protein (MCP)-1, macrophage inflammatory protein (MIP)-1α, MIP-1β, soluble CD40-ligand (sCD40L), transforming growth factor (TGF)-α, tumor necrosis factor (TNF)-α, vascular endothelial growth factor (VEGF) were determined using the Non-Human Primate Cytokine MILLIPLEX map 23-plex kit (Millipore, Cat #PRCYTOMAG-40K) according to the manufacturer's instructions.
Autopsies of the rhesus macaques were performed according to a standard protocol. After the dissection, the major organs were grossly examined. The lung tissues were harvested, fixed in 10% neutral-buffered formalin solution, embedded in paraffin and 2 μm tissue sections were prepared. […]

[2] = test system: senescent cells; experiment: Flow cytometry of apoptosis (annexin V / propidium iodide) in senescent cells; type: cell-based; conditions: SSK1-treated senescent cells; after 36 hours of treatment
Protocol: Fibroblasts were digested into single cell suspensions by incubation with 0.25% trypsin-EDTA (Invitrogen) at 37° C. for 3-5 min or with accutase at 37° C. for 10 min. Cells were then stained with FITC annexin V and propidium iodide (PI) according to the manufacturer's protocol (FITC Annexin V Apoptosis Detection Kit I, BD Pharmingen™). For chondrocytes Annexin V/7-AAD analysis, the trypsinized live chondrocytes and floating cells were collected, centrifuged and washed with PBS. Cells were stained with the Annexin V Apoptosis Detection Kit (Biolegend, 640934) according to the manufacturer's instruction. Before the flow cytometric analysis, the precision count beads (Biolegend, 424902) were added to count the absolute live cell numbers. Flow cytometry was performed within one hour on an Aria III (BD Biosciences) or FACSVerse (BD Biosciences). Data were analyzed using FlowJo software (FlowJo LLC).

[3] = test system: senescent lung cells from 23-month-old mice; experiment: Cell viability, mouse lung fibroblasts of old and young mice; type: cell-based; conditions: senescent lung cells from 23-month-old mice vs non-senescent lung cells from young mice; increasing doses
Protocol: Mouse embryonic fibroblasts (MEFs) were isolated from E13.5 embryos as described previously (Zhao et al., Cell Stem Cell 23, 31-45 e37([…])). Newborn mouse skin fibroblasts (NBFs) were isolated from the skin of day 1-3 newborn mice. Adult mouse lung fibroblasts were isolated from 2-month-old and 23-month-old mice. Briefly, mouse embryonic tissues, skin and lung were obtained from described donor mice. Then, these tissues were minced with forceps and incubated in 2 mg/ml collagenase IV (Gibco) for 2-4 hours at 37° C. After enzyme treatment, cells were collected by centrifugation and resuspended in high-glucose DMEM (Gibco) supplemented with 10% fetal bovine serum (FBS) and 1% penicillin-streptomycin (Gibco). The three types of mouse primary cells were all cultured in a humidified incubator at 37° C. and 5% CO2.
To test the viability of senescent and non-senescent cells treated with SSK1, cells were stained with a mixture of Hoechst 33342 and propidium iodide (PI) (CA1120, Solarbio) to distinguish living and dead cells. After treatment with the small molecules, the cell culture medium was removed, and the cells were washed once with PBS. […] The plate was incubated at 4° C. for 30 min and observed on a fluorescence microscope or automatic cell imaging system. Viable cells were quantified using a MD Image Xpress Micro XL (Molecular Devices).

**Q.** How did the “Body weight change (32 dpi vs 22 dpi %)” value ([1]; RM4 young 1-year, 0.5 mg/kg) turn out when CC(=O)OCC1O[C@@H](Oc2ccc(COC(=O)Nc3ccn([C@@H]4O[C@H](CO)C(O)C4(F)F)c(=O)n3)cc2[N+](=O)[O-])C(OC(C)=O)C(OC(C)=O)[C@H]1OC(C)=O (stereo partly shown) [SSK1] was run?
**A.** +25.00%

**Q.** And the “Body weight change (32 dpi vs 22 dpi %)” value ([1]; RM5 adult 5-year, 0.5 mg/kg)?
**A.** −3.45%

**Q.** What about the “Body weight change (32 dpi vs 22 dpi %)” value ([1]; RM6 old 17-year, 0.5 mg/kg) of the same compound?
**A.** −1.25%

**Q.** What about the “Body weight change (32 dpi vs 22 dpi %)” value ([1]; RM7 young 1-year, 2.0 mg/kg) of the same compound?
**A.** +12.50%

**Q.** What about the “Body weight change (32 dpi vs 22 dpi %)” value ([1]; RM8 adult 5-year, 2.0 mg/kg) of the same compound?
**A.** +9.68%

**Q.** What about the “Body weight change (32 dpi vs 22 dpi %)” value ([1]; RM9 old 18-year, 2.0 mg/kg) of the same compound?
**A.** +1.82%

**Q.** And the Body weight loss ([1]; SSK1 0.5 or 2.0 mg/kg, 22 to 32 dpi)?
**A.** effectively prevented body weight loss

**Q.** And the “Pulmonary histology assessment (histologic lesions)” value ([1]; SSK1-treated animals vs vehicle)?
**A.** reduction in histologic lesions

**Q.** What about the “Diseased phenotype of lung sections (thickened alveolar septum, edema, hemorrhage; H&E staining)” value ([1]; SSK1-treated group vs vehicle) of the same compound?
**A.** greatly improved

**Q.** And the “Inflammatory cytokines in blood including IL-6, IL-8, IL-10, IL-15, TGF-α and MCP1” value ([1]; SSK1-treated old monkeys, especially at 2 mg/kg)?
**A.** reduced at 28 dpi compared with 21 dpi

**Q.** What about the “Serum level of IL-18” value ([1]; all high-dosage (2.0 mg/kg) SSK1-treated monkeys) of the same compound?
**A.** increased level

**Q.** And the “New lung lesions at necropsy” value ([1]; all six SSK1-treated monkeys)?
**A.** only found one exhibiting new lung lesions

**Q.** What about the “Macrophage infiltration in lung (CD68 immunohistochemistry)” value ([1]; especially at high dosages, in the elderly group) of the same compound?
**A.** significantly reduced macrophage infiltration

**Q.** What about the Adverse effects ([1]; treated monkeys) of the same compound?
**A.** did not observe any adverse effects

**Q.** And the “Apoptosis (annexin V / PI)” value [2]?
**A.** induced apoptosis in senescent cells

**Q.** What about the “Selective elimination of senescent cells (viable cells)” value [3] of the same compound?
**A.** specifically eliminated these senescent cells
